From patent US9126891B2, “Cycloalkyl-diamines” (MediSynergics, LLC, priority 2014, dated 2015)

Assays:
[1] = tested on: T. brucei brucei clone 427-221a (bloodstream forms); experiment: T. brucei brucei growth inhibition assay (CellTiter-Glo ATP bioluminescence); type: cell-based; conditions: 40 hours incubation, 95% Confidence Intervals in parentheses, read-out: T. b. brucei IC50
Protocol: The growth inhibition assay for T. brucei brucei was conducted as described previously by Z. B. Mackey (Kenny K. H. Ang, Joseline Ratnam, Jiri Gut, Jennifer Legac, Elizabeth Hansell, Zachary B. Mackey, Katarzyna M. Skrzypczynska, Anjan Debnath, Juan C. Engel, Philip J. Rosenthal, James H. McKerrow, Michelle R. Arkin, Adam R. Renslo (2010) “Mining a Cathepsin Inhibitor Library for New Antiparasitic Drug Leads”, PLoS Neglected Tropical Diseases, 5(5):e1023). Bloodstream forms of the monomorphic T. brucei brucei clone 427-221a were grown in complete HMI-9 medium containing 10% FBS, 10% Serum Plus medium (Sigma Inc., St. Louis, Mo., USA), 50 U/mL penicillin and […] streptomycin (Invitrogen) at 370 C under a humidified atmosphere and 5% CO2. […] of each dilution was added to […] of diluted parasites ([…]) in sterile Greiner 96-well flat white opaque culture plates such that the final DMSO concentration was 0.5%. The 0% inhibition control wells contained 0.5% DMSO while 100% inhibition control wells contained 50 mM thimerosal (Sigma-Aldrich, St. Louis, Mo.). After compound addition, plates were incubated for 40 hours at 370 C. At the end of the incubation period, […] of CellTiter-Glo™ reagent (Promega Inc., Madison, Wis., USA) was added to each well and plates were placed on an orbital shaker at room temperature for 2 min to induce lysis. After an additional 10 min of incubation without shaking, to stabilize the signal, the ATP-bioluminescence of each well was determined using an Analyst HT Plate Reader (Molecular Devices, Sunnyvale, Calif., USA). Raw values were converted to log 10 and percentage inhibition calculated relative to the controls. IC50 curve fittings were performed with Prism 4 software as above. Pentamidine was used as a comparator in the assay.

P. falciparum strain 3D7 = experiment: Plasmodium falciparum activity assay (SYBR Green I method); type: cell-based; conditions: strain 3D7 in human erythrocytes, 72 h incubation
Protocol: P. falciparum strain 3D7 was cultured according to the method of Trager and Jensen (W. Trager, J. B. Jensen (1976) “Human malaria parasites in continuous culture”, Science, 193(4254):673-5) with minor modifications. Parasites were grown in human erythrocytes (2% hematocrit) in an atmosphere of 5% CO2, 5% O2, 90% N2 in RPMI 1640 medium (Gibco) supplemented with 25 mM hepes buffer (Sigma), 25 mg/L gentamicin (Gibco, Life Technologies, Grand Island, N.Y.), 1 mM sodium pyruvate (Sigma), 50 mg/L hypoxanthine (Sigma), 2 g/L glucose (Sigma), 2.52 g/L sodium bicarbonate (Sigma) and 5 g/L Albumax 1 (Gibco). In vitro antimalarial activity was determined by the SYBR Green I method described by Smilkstein (Smilkstein M, Sriwilaijaroen N, Kelly J X, Wilairat P, Riscoe M. (2004) “Simple and inexpensive fluorescence-based technique for high-throughput antimalarial drug screening”. Antimicrob. Agents Chemother., 48(5):1803-6. PMCID: 400546) with modifications (see Winter R W, Kelly J X, Smilkstein M J, Dodean R, Bagby G C, Rathbun R K (2006) “Evaluation and lead optimization of anti-malarial acridones”. Exp. Parasitol., 114(1):47-56). […] After incubation for 1 h at room temperature in the dark, plates were read on a Safire2 (Tecan) plate reader with excitation and emission wavelengths of […], respectively. […]

## CN[C@]1(c2ccccc2Cl)CCCC[C@H]1NCCCn1ccnc1 (relative stereo) [Example 12a, Trans-1-(2-chlorophenyl)-N^2-(3-(1-imidazolyl)-propyl)-N^1-methylcyclohexane-1,2-diamine]
[1]
  IC50: 16 µM

## CN[C@@]1(c2ccccc2Cl)CCCC[C@H]1NCCCc1ccccc1 (relative stereo) [Example 15b, Cis-1-(2-chlorophenyl)-N^2-(3-phenylpropyl)-N^1-methylcyclohexane-1,2-diamine]
P. falciparum strain 3D7
  IC50: 2.5 µM
[1]
  IC50: 4.6 µM

## CN[C@@]1(c2ccccc2Cl)CCCC[C@H]1NCCCN1CCOCC1 (relative stereo) [Example 16b, Cis-1-(2-chlorophenyl)-N^2-(3-(morpholin-1-yl)propyl)-N^1-methylcyclohexane-1,2-diamine]
P. falciparum strain 3D7
  IC50: 18 µM
[1]
  IC50: 1.7 µM
